Test results reported in PubChem BioAssay (NCI).
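The compound was tested at five concentrations on cells cultured in 96-well plates, with a 48-hour exposure period. GI50 marks 50% less growth. Definition used: TGI = concentration required for complete inhibition of growth.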

Tests used:
Assay in all cases: NCI tumour cell line growth inhibition, 48 h
OVCAR-5 ovarian = test system: OVCAR-5 ovarian
KM12 colon = test system: KM12 colon
SW-620 colon = test system: SW-620 colon
COLO 205 colon = test system: COLO 205 colon
MALME-3M melanoma = test system: MALME-3M melanoma
OVCAR-8 ovarian = test system: OVCAR-8 ovarian
HOP-92 NSCLC = test system: HOP-92 NSCLC
BT-549 breast = test system: BT-549 breast
NCI-H460 lung = test system: NCI-H460 lung
ACHN renal = test system: ACHN renal

Row | SMILES | GI50 (OVCAR-5 ovarian) [µM] | TGI (OVCAR-5 ovarian) [µM] | GI50 (KM12 colon) [µM] | TGI (KM12 colon) [µM] | GI50 (SW-620 colon) [µM] | TGI (SW-620 colon) [µM] | GI50 (COLO 205 colon) [µM] | TGI (COLO 205 colon) [µM] | GI50 (MALME-3M melanoma) [µM] | TGI (MALME-3M melanoma) [µM] | GI50 (OVCAR-8 ovarian) [µM] | TGI (OVCAR-8 ovarian) [µM] | GI50 (HOP-92 NSCLC) [µM] | TGI (HOP-92 NSCLC) [µM] | GI50 (BT-549 breast) [µM] | TGI (BT-549 breast) [µM] | GI50 (NCI-H460 lung) [µM] | TGI (NCI-H460 lung) [µM] | GI50 (ACHN renal) [µM] | TGI (ACHN renal) [µM]
1 | O=c1[nH]c2cc(Cl)c(Cl)cc2n2cc3ccccc3c12 | 17.1 | 30.8 | 17.3 | 31.1 | 15.8 | 29.2 | 29.6 | > 100 | 17.1 | 32.7 | 18.4 | 32.4 | 18.4 | 34.7 | 26.5 | 57.2 | 18.8 | 32.8 | 15.5 | 28.9
2 | COc1ccc(NC(=O)c2sc3nc4c(cc3c2N)CCCC4)cc1 | 7.28 | > 100 | 0.612 | 82.9 | 0.429 | > 100 | 0.876 | 6.46 | – | – | 2.38 | > 100 | 10.6 | 76.3 | 0.41 | 13.9 | 0.543 | 19.8 | 0.627 | > 100
3 | CN(C)C/C=C/C(=O)Nc1ccc(C(=O)N2CCC[C@@H](Nc3ncc(Cl)c(-c4c[nH]c5ccccc45)n3)C2)cc1 | 0.328 | 11.6 | 0.371 | 12.1 | 0.191 | 5.74 | 0.0338 | 0.122 | 0.0372 | 0.315 | 0.406 | 11.8 | 0.244 | 1.54 | 0.267 | 1.22 | 0.498 | 5.62 | 3.41 | 12.7
4 | C[C@@H]1C/C=C\C(=O)O[C@H](/C=C/C#C/C=C/C(C)(C)[C@@H](O)c2cccc(O)c2Br)[C@@H](C)/C=C/[C@H](C)C[C@H](OC(N)=O)C1 | 0.0322 | 18.3 | 0.0252 | 16.2 | 0.0348 | 15.8 | 0.0435 | 21.4 | 0.0419 | 4.6 | 0.0512 | 23.2 | 0.0228 | 0.0836 | 0.0308 | 18.2 | 0.0234 | 11.2 | 0.0405 | 14.5
5 | COc1ccc(C2ONC3=NCCN32)cc1 (centres undefined) | > 100 | > 100 | 54.7 | > 100 | 46.8 | > 100 | 45.9 | > 100 | > 100 | > 100 | 67.7 | > 100 | 40.8 | > 100 | 94.1 | > 100 | 50.8 | > 100 | 37.1 | > 100
6 | Cc1cc(NC(=O)NC(=O)c2ccccc2N(C)C)ccc1Oc1ncc(Br)cn1 | 2.61 | > 67.5 | – | > 38 | – | > 71.1 | 0.266 | – | 2.22 | > 100 | 0.614 | > 68.1 | 5.5 | 46.2 | – | > 46.4 | 0.343 | 55.5 | 0.404 | > 68.1
